We go through 39 compounds from patent publication US20070254894A1, “Novel small molecules with selective cytotoxicity against human microvascular endothelial cell proliferation” (priority 2006, published 2007).

Like-named read-outs stand apart in the source and are kept apart here.

Data set [1] concerns HMVEC cells stimulated with VEGF 165. In words: VEGF driven HMVEC proliferation screen. Format: cell-based. As to the method:
(§1) HMVEC cells were plated on collagen-coated plates at 2500 cells/well for 24 hours. Various concentrations of test compounds were then added to duplicate plates. […] Anti-FGF antibody (final concentration of 5 μg/mL) was added to four control wells as a standard inhibitor. At the same time the compounds were added, a T-zero plate was generated (Alamar blue was added to a plate and read after three hours). The plates with the compounds were incubated for one hour at 37° C., 5% carbon dioxide. At this point, b-FGF was added (final concentration of 2.5 ng/mL). Tween-20 (10 μL) was added to four additional control wells to represent total death and the plates were returned to the carbon dioxide incubator for 6 days.
The assay was run identically using VEGF in place of b-FGF. The final concentration of VEGF 165, in this mode, was 10 ng/mL. The control inhibitor was anti-VEGF antibody (final concentration of […]). All other conditions were the same.

The test system of data set [2] is HMVEC cells stimulated with b-FGF. In words: b-FGF driven HMVEC proliferation screen. Format: cell-based. As to the method: as §1
For data set [3], the system named is Primary Human Dermal Fibroblasts. In words: in vitro. The following applies: read-out: D. Fibroblast LC50; 6 days, Alamar blue. As to the method:
In parallel with the VEGF and FGF screens, a normal cell toxicity assay was run. Primary Human Dermal Fibroblasts (Clonetics) were plated at 5000 cells/well. After 24 hours various concentrations of test compounds, were added in duplicate plates and 10% Tween-20 was added to four control wells to represent total death. At the same time a T-zero plate was generated. The plates were returned to the carbon dioxide incubator and on day 6 Alamar blue was added and the plates read after 3 hours.
Using a T-zero plate allows the observation of compounds that cause the cells to become static as well as inhibit growth.

Where [4] appears, read: VEGF 165 10 ng/mL, 6 days, Alamar blue, read-out: VEGF LC50.
The mark [5] stands for this setting: b-FGF 2.5 ng/mL, 6 days, Alamar blue, read-out: b-FGF LC50.
Where [6] appears, read: Homo sapiens, HMVEC, 144 h, VEGF 165 10 ng/mL, 6 days, Alamar blue, read-out: VEGF LC50.
Where [7] appears, read: Homo sapiens, HMVEC, 144 h, b-FGF 2.5 ng/mL, 6 days, Alamar blue, read-out: b-FGF LC50.

Consider `O=C(Nc1cccc2cccnc12)c1ccccn1` [Compound 1], for which the CC50 in data set [1] was 65 nM; in data set [2] it was 61 nM.
As for `COc1cc(NC(=O)c2ccccn2)c2ncccc2c1` [Compound 2], the CC50 in data set [1] was 38 nM; in data set [2], 31 nM; in data set [3], 3400 nM.
Consider `COc1ccc(NC(=O)c2ccccn2)c2ncccc12` [Compound 3], for which the CC50 in data set [1] (setting [4]) is 120 nM; in data set [2] (setting [5]), 110 nM; in data set [3], more than 10000 nM.
For the compound `O=C(Nc1cc(Cl)cc2cccnc12)c1ccccn1` [Compound 4], the CC50 is 120 nM in data set [1], 110 nM in data set [2] and more than 10000 nM in data set [3].
With `O=C(Nc1cc(C(F)(F)F)cc2cccnc12)c1ccccn1` [Compound 5], the CC50 in data set [1] was 160 nM; in data set [2], 120 nM; in data set [3], more than 10000 nM.
With `Cc1ccc2cccc(NC(=O)c3ccccn3)c2n1` [Compound 6], the CC50 was 3900 nM in data set [1], 3200 nM in data set [2] and more than 10000 nM in data set [3].
Taken in the same sequence, the figures for `O=C(Nc1cccc2cc(Cl)cnc12)c1ccccn1` [Compound 7] were 310 nM, 320 nM and more than 10000 nM.
Taken in the same sequence, the figures for `CCOc1cc(NC(=O)c2ccccn2)c2ncccc2c1` [Compound 8] were 96 nM, 81 nM and more than 10000 nM.
Regarding `O=C(Nc1cc(-c2ccccc2)cc2cccnc12)c1ccccn1` [Compound 10], the CC50 in data set [1] (setting [4]) is 260 nM; in data set [2] (setting [5]) it was 380 nM; in data set [3], more than 10000 nM.
Consider `Cc1cc(NC(=O)c2ccccn2)c2ncccc2c1` [Compound 11], for which the CC50 in data set [1] is 73 nM; in data set [2], 68 nM; in data set [3], more than 10000 nM.
In the case of `O=C(Nc1ccc(Oc2ccccc2)c2cccnc12)c1ccccn1` [Compound 12], the CC50 in data set [1] (setting [4]) is 1000 nM; in data set [2] (setting [5]), 1000 nM; in data set [3], more than 10000 nM.
With `O=C(Nc1cc(N2CCOCC2)cc2cccnc12)c1ccccn1` [Compound 13], the CC50 was 25 nM in data set [1], 26 nM in data set [2] and more than 10000 nM in data set [3].
Taken in the same sequence, the figures for `Cc1ccc(NC(=O)c2ccccn2)c2ncccc12` [Compound 14] were 130 nM, 170 nM and more than 10000 nM.
Taken in the same sequence, the figures for `O=C(Nc1cc(Cl)c(Cl)c2cccnc12)c1ccccn1` [Compound 15] were 210 nM, 220 nM and more than 10000 nM.
Consider `Cc1cc(NC(=O)c2ccccn2)c2ncccc2c1C` [Compound 17], for which the CC50 in data set [1] was 160 nM; in data set [2], 130 nM; in data set [3], more than 10000 nM.
Taken in the same sequence, the figures for `O=C(Nc1ccc(Cl)c2cccnc12)c1ccccn1` [Compound 18] were 170 nM, 200 nM and more than 10000 nM.
On to `CN1CCN(c2ccc(NC(=O)c3ccccn3)c3ncccc23)CC1` [Compound 19], for which the CC50 is 28 nM in data set [1] (setting [4]), 28 nM in data set [2] (setting [5]) and more than 10000 nM in data set [3].
For `O=C(Nc1cc(OCCN2CCOCC2)cc2cccnc12)c1ccccn1` [Compound 20], the figures for the CC50 in data set [1] and in data set [2] were 30 nM and 31 nM, respectively.
Take `CN(C)CCN(C)c1ccc(NC(=O)c2ccccn2)c2ncccc12` [Compound 21]: the values for the CC50 in data set [1] (setting [4]), in data set [2] (setting [5]) and in data set [3] were 3700 nM, 2400 nM and more than 10000 nM, respectively.
Take `CCCOc1cccnc1C(=O)Nc1cccc2cccnc12` [Compound 23]: the CC50 in data set [1] was 180 nM; in data set [2], 210 nM; in data set [3], more than 10000 nM.
Taken in the same sequence, the figures for `Cc1cccnc1C(=O)Nc1cccc2cccnc12` [Compound 24] were 140 nM, 150 nM and more than 10000 nM.
Taken in the same sequence, the figures for `Cc1cccc(C(=O)Nc2cccc3cccnc23)n1` [Compound 25] were 2500 nM, 2300 nM and more than 10000 nM.
Taken in the same sequence, the figures for `O=C(Nc1cccc2cccnc12)c1cccc(Br)n1` [Compound 26] were 86 nM, 120 nM and more than 10000 nM.
In the case of `O=C(Nc1cccc2cccnc12)c1cc(-c2ccccc2)ccn1` [Compound 27], the CC50 in data set [1] (setting [4]) was 640 nM; in data set [2] (setting [5]), 950 nM; in data set [3] it was more than 10000 nM.
As for `O=C(Nc1cccc2cccnc12)c1cc2ccccc2cn1` [Compound 28], the results for the CC50 in data set [1], in data set [2] and in data set [3] were 480 nM, 610 nM and more than 10000 nM, respectively.
Taken in the same sequence, the figures for `COc1ccnc(C(=O)Nc2cccc3cccnc23)c1` [Compound 29] were 60 nM, 69 nM and more than 10000 nM.
Taken in the same sequence, the figures for `O=C(Nc1cccc2cccnc12)c1cc(N2CCOCC2)ccn1` [Compound 30] were 22 nM, 26 nM and 8000 nM.
Take `O=C(Nc1cccc2cccnc12)c1ccc(-c2ccccc2)cn1` [Compound 33]: the results for the CC50 in data set [1] (setting [4]), in data set [2] (setting [5]) and in data set [3] were 4700 nM, 6100 nM and more than 10000 nM, respectively.
Taken in the same sequence, the figures for `CN1CCN(c2ccnc(C(=O)Nc3cccc4cccnc34)c2)CC1` [Compound 34, 4-(4-methylpiperazin-1-yl)pyridine-2-carboxylic acid quinolin-8-ylamide] were 13 nM, 18 nM and more than 10000 nM.
For `O=C(Nc1cccc2cccnc12)c1cc(NCCN2CCOCC2)ccn1` [Compound 35], the CC50 in data set [1] is 120 nM; in data set [2], 160 nM; in data set [3] it was more than 10000 nM.
Take `O=C(Nc1cccc2cccnc12)c1cc(N2CCN(Cc3ccccc3)CC2)ccn1` [Compound 36]: the CC50 was 840 nM in data set [1] (setting [4]), 900 nM in data set [2] (setting [5]) and more than 10000 nM in data set [3].
For `O=C(Nc1cccc2cccnc12)c1cc(N2CCC(O)CC2)ccn1` [Compound 37], the CC50 in data set [1] was 290 nM; in data set [2], 310 nM; in data set [3], more than 10000 nM.
Take `CN1CCCN(c2ccnc(C(=O)Nc3cccc4cccnc34)c2)CC1` [Compound 38]: the CC50 in data set [1] was 26 nM; in data set [2] it was 25 nM; in data set [3] it was more than 10000 nM.
Taken in the same sequence, the figures for `O=C(Nc1cccc2cccnc12)c1cc(N2CCN(CCO)CC2)ccn1` [Compound 39] were 220 nM, 650 nM and more than 10000 nM.
Taken in the same sequence, the figures for `CCN(CCN(C)C)c1ccnc(C(=O)Nc2cccc3cccnc23)c1` [Compound 40] were 16 nM, 21 nM and 7600 nM.
Consider `CCN1CCN(c2ccnc(C(=O)Nc3cccc4cccnc34)c2)CC1` [Compound 41], for which the CC50 in data set [1] stood at 17 nM; in data set [2], 18 nM; in data set [3] it was 4200 nM.
For `O=C(Nc1cccc2cccnc12)c1ncccc1OCCN1CCOCC1` [Compound 48], the CC50 in data set [1] worked out at 950 nM; in data set [2], 1600 nM.
Turning to `O=C(Nc1cc(OCCN2CCOCC2)cc2cccnc12)c1ccccn1` [Compound 99], the values for the CC50 in data set [1] (setting [6]) and in data set [2] (setting [7]) were 28 nM and 31 nM, respectively.
Taken in the same sequence, the figures for `O=C(Nc1cccc2cccnc12)c1ncccc1OCCN1CCOCC1` [Compound 104] were 810 nM and 1400 nM.
